Laboratory results from ChEMBL document CHEMBL1123401, “Mapping the turkey erythrocyte beta receptor: a distance geometry approach” (J Med Chem, 1986).

Test system: Erythrocyte beta receptor
Test: Free energy of binding to turkey erythrocyte beta receptor
Parameters: unit not given here
Settings: Meleagris gallopavo

CC(Cc1ccc2c(c1)OCO2)NC[C@H](O)c1ccc(O)c(O)c1 (some centres not stated)
Delta G: -9.88

NC[C@H](O)c1ccc(O)c(O)c1
Delta G: -7.26

O[C@@H](CNc1ccccc1)c1ccccc1
Delta G: -5.76

CC(C)(C)NC[C@H](O)c1ccc(O)c(CO)c1
Delta G: -8.23

COc1ccc(CC(C)NC[C@H](O)c2ccc(O)c(CO)c2)cc1 (some centres not stated)
Delta G: -7.65

CC(C)(C)NC[C@H](O)c1cc(O)cc(CO)c1
Delta G: -6.58

CC[C@H](NC(C)C)[C@H](O)c1ccc(NS(C)(=O)=O)cc1
Delta G: -7.41

CC(C)NC[C@H](O)c1ccc(NS(C)(=O)=O)c(O)c1
Delta G: -6.29

CC(C)NC[C@H](O)COc1ccc(O)cc1
Delta G: -8.91

CC(C)NC[C@H](O)COc1cccc2c(O)cccc12
Delta G: -11.2

CC(C)(Cc1ccc(O)cc1)NC[C@H](O)c1cc(O)cc(CO)c1
Delta G: -7.61

CNC[C@H](O)c1ccccc1
Delta G: -6.79

CC(C)NC[C@H](O)COc1ccccc1I
Delta G: -12.8

CN[C@@H](C)[C@H](O)c1ccc(O)cc1
Delta G: -6.47

C=CCc1cccc(OC[C@@H](O)CNC(C)C)c1
Delta G: -8.82

CC(C)NC[C@H](O)c1ccc(O)c2ncccc12
Delta G: -10.4

CC(Cc1ccc(O)cc1)NC[C@H](O)c1ccc(O)c(O)c1 (some centres not stated)
Delta G: -10.4

C=CCOc1ccccc1OC[C@@H](O)CNC(C)C
Delta G: -11.6

CC(C)(C)NC[C@H](O)COC1=CC=CC2C(=O)C=CC=C12 (some centres not stated)
Delta G: -11.9

NC[C@H](O)c1cccc(O)c1
Delta G: -7.23

CC(C)(Cc1ccc(O)cc1)NC[C@H](O)COc1cccc2[nH]ccc12
Delta G: -14.7

CNC[C@H](O)c1cccc(O)c1
Delta G: -6.72

NC[C@H](O)c1ccc(O)cc1
Delta G: -5.94

CC(C)NC[C@@H](O)COc1cccc2ccccc12
Delta G: -11.7

CC(C)NC[C@H](O)COc1ccc(O)c(O)c1
Delta G: -9.13

Oc1ccc(CCNC[C@H](O)COc2cccc3ccccc23)cc1
Delta G: -10.9

CC(C)NC[C@H](O)COc1cccc2[nH]ccc12
Delta G: -13

CC(C)NCC(O)c1ccc(O)c(O)c1 (configuration not stated)
Delta G: -9.18

C[C@H](COc1ccccc1)NC[C@H](O)c1ccc(O)cc1
Delta G: -7.95

CC(Cc1ccc(O)cc1)NC[C@H](O)c1cc(O)cc(O)c1 (some centres not stated)
Delta G: -8.62

CC(C)(Cc1ccc(O)cc1)NC[C@H](O)c1ccc(O)c(O)c1
Delta G: -10

CC(C)NC[C@H](O)c1ccc(Cl)c(Cl)c1
Delta G: -8.83

CC(=O)Nc1ccc(OC[C@@H](O)CNC(C)C)cc1
Delta G: -7.54

CC(CCc1ccccc1)N[C@@H](C)[C@H](O)c1ccc(O)cc1 (some centres not stated)
Delta G: -9.55

CC(C)NC[C@H](O)c1ccc(O)cc1
Delta G: -7.54

CC(C)NC[C@H](O)c1ccc2ccccc2c1
Delta G: -9.06

C[C@H](NCCc1ccccc1)[C@H](O)c1ccc(O)cc1
Delta G: -9.01

C[C@H](N)[C@H](O)c1ccc(O)c(O)c1
Delta G: -9.64

CS(=O)(=O)Nc1cc([C@@H](O)CNC2CC2)ccc1O
Delta G: -8.19

CC(C)(Cc1ccc(O)cc1)NC[C@H](O)COc1cccc2ccccc12
Delta G: -11.2

CC(C)NC[C@H](O)c1cc(O)cc(O)c1
Delta G: -7.13

COc1ccc(CCNC[C@H](O)COC2=CC=CC3C(=O)C=CC=C23)cc1OC (some centres not stated)
Delta G: -11.3

C=CCc1ccccc1OC[C@@H](O)CNC(C)C
Delta G: -12.1

CC(C)NC[C@H](O)c1ccc(NS(C)(=O)=O)cc1
Delta G: -8.46

CNC[C@H](O)c1ccc(O)cc1
Delta G: -6.01

CCNC[C@H](O)c1ccc(O)c(O)c1
Delta G: -7.59

CC(C)(C)NC[C@H](O)COc1cccc2[nH]ccc12
Delta G: -13.5

CCNC[C@H](O)c1cccc(O)c1
Delta G: -6.75

NC[C@H](O)COc1cccc2ccccc12
Delta G: -10.9

CC(C)NC[C@H](O)c1ccc(O)c(CS(C)(=O)=O)c1
Delta G: -7.85

C[C@H](N)[C@H](O)c1ccc(O)cc1
Delta G: -6.27

CNC[C@H](O)c1ccc(O)c(O)c1
Delta G: -7.86

CC(C)(Cc1ccccc1)NC[C@H](O)c1ccc(O)c(NS(C)(=O)=O)c1
Delta G: -9.64

CC(C)NC[C@H](O)COc1ccc(N)cc1
Delta G: -8.96

CC(C)NC[C@H](O)c1cccc(O)c1
Delta G: -7.99

CC(C)NC[C@H](O)c1ccc(O)c(NS(C)(=O)=O)c1
Delta G: -7.36

CC[C@H](NC(C)C)[C@H](O)c1ccc(O)c(O)c1
Delta G: -8.02
